The values that follow are results of earlier work, collected in US9334250B2, “Multifunctional radical quenchers for the treatment of mitochondrial dysfunction” (Arizona Board of Regents, A Body Corporate of the State of …, priority 2012, dated 2016).

The conditions of this series: James et al. (2005) J Biol. Chem. 280, 21295-21312.

Turning to `COC1=C(OC)C(=O)C(C/C=C(\C)CC/C=C(\C)CC/C=C(\C)CC/C=C(\C)CC/C=C(\C)CC/C=C(\C)CC/C=C(\C)CC/C=C(\C)CC/C=C(\C)CCC=C(C)C)=C(C)C1=O` [coenzyme Q10], the calculated octanol-water partition coefficient was more than 1e+20.
